Data published in US8030004B2, “Cell free screening assay and methods of use” (Oregon Health & Science University, priority 2005, dated 2011).
Entries after “also recorded” stand apart in the source; their conditions may differ.

Experiments:
Type in all cases: biochemical
[1] = tested on: xFANCA, xFANCF, xFANCD2; experiment: Chromatin binding of xFA proteins in replicating S-phase Xenopus egg extracts with sperm chromatin; conditions: for chromatin binding of xFA proteins (xFANCA, xFANCF, xFANCD2): replicating S-phase extracts with sperm chromatin
Protocol: Following replication (60 minutes), chromatin was re-isolated and the same blot was assayed in series for the presence of the xFA proteins indicated. A non-specific band is indicated (asterisk) as a loading control. […] A replication assay was performed to monitor incorporation of α-^32P-GTP during one round of replication in extracts treated as indicated. Total amounts of replication products at 60 minutes following addition of sperm chromatin to non-treated or treated extracts were analyzed by agarose gel electrophoresis and exposure to X-ray film. Band density percentages were determined using a BioRad Molecular PhosphorImager Fx (Kodak screens, Quantity-1 software). […] 1000 sperm pronuclei/ul were added to replicating extracts containing different concentrations of MMC (lanes 3-9). Extracts were otherwise untreated or contained caffeine (lanes 6+7) or a neutralizing anti-xATR antibody (lanes 8+9). MMC-concentrations: 150 μM (lanes 3, 6, 8), 50 μM (lanes 4, 7, 9), or 5 μM (lane 5). […] Sperm chromatin was added to S-phase egg extracts. Xenopus egg extracts were either untreated (−) or aphidicolin was added (+) at the indicated time points following addition of sperm DNA: 0 minutes, pre-nuclear membrane formation; 30 minutes, beginning of replication; 60 minutes, mid-replication; 90 minutes late/post-replication; and 120 minutes, post replication. All chromatin fractions were re-isolated at 135 minutes following addition of sperm DNA, analyzed by SDS-PAGE and immunoblotted as indicated. […] Xenopus egg extracts were treated with beads coupled to preimmune serum (lanes 2, 3, and 5) or beads coupled to anti-xATRIP serum (lanes 1, 4, and 6). Sperm chromatin was added to preimmune or xATRIP depleted extracts and allowed to replicate. Xenopus egg extracts were either untreated or supplemented with aphidicolin (added at 50 minutes following addition of sperm DNA). Chromatin fractions were re-isolated at 70 minutes and assayed for the presence of xFANCD2, xFANCA, xATRIP and xORC-2 by immunoblotting. […]

[2] = tested on: DNA replication; experiment: DNA replication assay of sperm chromatin in S-phase Xenopus egg extracts
Protocol: Following replication (60 minutes), chromatin was re-isolated and the same blot was assayed in series for the presence of the xFA proteins indicated. A non-specific band is indicated (asterisk) as a loading control. […] A replication assay was performed to monitor incorporation of α-^32P-GTP during one round of replication in extracts treated as indicated. Total amounts of replication products at 60 minutes following addition of sperm chromatin to non-treated or treated extracts were analyzed by agarose gel electrophoresis and exposure to X-ray film. Band density percentages were determined using a BioRad Molecular PhosphorImager Fx (Kodak screens, Quantity-1 software). […] 1000 sperm pronuclei/ul were added to replicating extracts containing different concentrations of MMC (lanes 3-9). Extracts were otherwise untreated or contained caffeine (lanes 6+7) or a neutralizing anti-xATR antibody (lanes 8+9). MMC-concentrations: 150 μM (lanes 3, 6, 8), 50 μM (lanes 4, 7, 9), or 5 μM (lane 5). […] Sperm chromatin was added to S-phase egg extracts. Xenopus egg extracts were either untreated (−) or aphidicolin was added (+) at the indicated time points following addition of sperm DNA: 0 minutes, pre-nuclear membrane formation; 30 minutes, beginning of replication; 60 minutes, mid-replication; 90 minutes late/post-replication; and 120 minutes, post replication. All chromatin fractions were re-isolated at 135 minutes following addition of sperm DNA, analyzed by SDS-PAGE and immunoblotted as indicated. […] Xenopus egg extracts were treated with beads coupled to preimmune serum (lanes 2, 3, and 5) or beads coupled to anti-xATRIP serum (lanes 1, 4, and 6). Sperm chromatin was added to preimmune or xATRIP depleted extracts and allowed to replicate. Xenopus egg extracts were either untreated or supplemented with aphidicolin (added at 50 minutes following addition of sperm DNA). Chromatin fractions were re-isolated at 70 minutes and assayed for the presence of xFANCD2, xFANCA, xATRIP and xORC-2 by immunoblotting. […] Xenopus egg extracts were treated with beads coupled to preimmune serum (lanes 1 and 3) or beads coupled to anti-xFANCA serum (lanes 2 and 4). Sperm chromatin was added to preimmune or xFANCA depleted extracts and allowed to replicate. Xenopus egg extracts were either untreated or supplemented with aphidicolin (added at 50 minutes following addition of sperm DNA). Chromatin fractions were re-isolated at 70 minutes and assayed for the presence of xFANCA, xATRIP and xORC-2 by immunoblotting.
Preparation of Xenopus egg extracts: Extracts were prepared from Xenopus eggs according to the method of Murray (Murray, Methods Cell Biol. 36:581-605, 1991). In brief, eggs were de-jellied in 2% cysteine, pH 7.8, washed three times in XB buffer (10 mM KCl, 1 mM MgCl2, […] CaCl2, 10 mM HEPES, 5 mM ethylene glycol tetraacetic acid (EGTA), 1.75% w/v sucrose, pH 7.8) and washed three times in CSF-XB buffer (5 mM EGTA, 2 mM MgCl2). Eggs were crushed by low speed centrifugation (10,000 g, 10 minutes) and the cytoplasmic fraction was cleared by centrifugation (16,000 g, 20 minutes) after the addition of energy mix (15 mM creatine phosphate, 2 mM ATP, 2 mM MgCl2), cytochalasin B (10 μg/ml), cycloheximide (100 μg/ml), and PEFABLOC™ (4-(2-aminoethyl)benzenesulfonylfluoride) (100 μg/ml). In some of the examples described herein, the extracts were released from M to S phase by the addition of CaCl2 to a final concentration of 0.4 mM. In some examples, the released extracts were incubated for 20 minutes at 23° C. Where indicated, mitomycin C (5-150 μM) and caffeine (4 mM), Tautomycin (3 uM), etoposide (30 or 60 uM), and ICRF-193 (150 and 300 uM) were added to S-phase extracts immediately prior to the addition of DNA substrates or sperm chromatin and incubated for the time indicated; aphidicolin (50 ng/1 μl), was added at the time points indicated.

[3] = tested on: xFANCM; experiment: Xenopus egg cell free extract: xFANCM mobility shift (phosphorylation) upon addition of DNA, immunoblot; conditions: natural product screen membranes reprobed with xFANCM antibody (FIG. 7B)
Protocol: 10 ul Xenopus egg extracts was combined with 0.5 ul compound (10 mM) or curcumin (control, 23 uM) then 0.5 ul plasmid DNA (pBluescript, 3.4 ug/ul) was added. The sample was incubated for 45 min at room temperature, then 60 ul of 1×SDS loading buffer. After incubation at 95° C. for 10 min, samples were resolved onto a NUPAGE™ 3-8% tris-acetate gradient gel (Invitrogen) and transferred onto a PVDF membrane (Immobilon P, Millipore).
Of the 235 compounds tested 7 (NP-A3, NP-A7, NP-D8, NP-E3, NP-F2, NP-F8, NP-H8) were positive for modulation of xFANCD2 activation (see FIG. 14). Membranes initially probed with xFANCD2 antibody were reprobed with xFANCM antibody. […] Thus xFANCM can be used as an indicator of Fanconi anemia pathway activation.

[4] = tested on: xFANCD2; experiment: Induction of xFANCD2-L by circular plasmid dsDNA in Xenopus egg cell free extracts, immunoblot; conditions: for induction of xFANCD2-L in the presence of circular plasmid DNA: 200 ng/ul circular plasmid dsDNA, etoposide 30 or 60 uM, ICRF-193 150 or 300 uM
Protocol: FIG. 13A is a digital image of an immunoblot showing Xenopus egg cell free extracts that were incubated with 160 ng/ul circular plasmid dsDNA for 30 min in the presence or absence of the replication initiation inhibitor geminin. Efficiency of replication inhibition was measured by performing a parallel replication assay using an aliquot of the geminin-treated extract (smaller panel in figure FIG. 13A). FIG. 13B is a digital image of an immunoblot showing that non-activated, M-phase egg extracts or CaCl2-activated, S-phase egg extracts were incubated with 160 ng/ul circular plasmid dsDNA. Extract aliquots (1 ul) were taken at the indicated time points and analyzed for xFANCD2 and xMre11. […] FIG. 13C is a digital image of an immunoblot showing Xenopus egg cell free extracts that were incubated with 160 ng/ul circular plasmid dsDNA for 30 min in the presence or absence of the checkpoint kinase inhibitor caffeine. Where indicated, extracts were supplemented with the phosphatase inhibitor, tautomycin, to stabilize xMre11-PPP. Following incubation, 1 ul of extract was analyzed for xFANCD2 and xMre11 by immunoblot. DNA-free extract was used as a size control for xFANCD2-S and xMre11 (lane 1). FIG. 13D is a digital image of an immunoblot showing Xenopus egg cell free extracts that were incubated either with bead-coupled anti-xATRIP antibody or with bead-coupled pre-immune serum and incubated with 200 ng/ul circular plasmid dsDNA. Aliquots were taken at different time points and assayed for xFANCD2 by immunoblot. 1 ul of DNA-free extract was used as a size control for xFANCD2-S (lane 5). […] Xenopus egg cell free extracts containing 200 ng/ul of circular plasmid dsDNA were incubated with etoposide (30 uM, lane 2; 60 uM, lane 3) or ICRF-193 (150 uM, lane 4; 300 uM, lane 5). Xenopus egg cell free extracts containing 200 ng/ul of circular plasmid dsDNA but not topoisomerase IIα inhibitor were used as positive control and DNA-free extracts were used as negative control for induction of xFANCD2-L. […]

[5] = tested on: xMre11; experiment: Induction of xMre11-PPP by plasmid DNA in Xenopus egg cell free extracts, immunoblot
Protocol: FIG. 13A is a digital image of an immunoblot showing Xenopus egg cell free extracts that were incubated with 160 ng/ul circular plasmid dsDNA for 30 min in the presence or absence of the replication initiation inhibitor geminin. Efficiency of replication inhibition was measured by performing a parallel replication assay using an aliquot of the geminin-treated extract (smaller panel in figure FIG. 13A). FIG. 13B is a digital image of an immunoblot showing that non-activated, M-phase egg extracts or CaCl2-activated, S-phase egg extracts were incubated with 160 ng/ul circular plasmid dsDNA. Extract aliquots (1 ul) were taken at the indicated time points and analyzed for xFANCD2 and xMre11. […] FIG. 13C is a digital image of an immunoblot showing Xenopus egg cell free extracts that were incubated with 160 ng/ul circular plasmid dsDNA for 30 min in the presence or absence of the checkpoint kinase inhibitor caffeine. Where indicated, extracts were supplemented with the phosphatase inhibitor, tautomycin, to stabilize xMre11-PPP. Following incubation, 1 ul of extract was analyzed for xFANCD2 and xMre11 by immunoblot. DNA-free extract was used as a size control for xFANCD2-S and xMre11 (lane 1). […]

[6] = high concentration of circular plasmid DNA (100 ng/ul), caffeine or geminin added

CO[C@@]12[C@H](COC(N)=O)C3=C(C(=O)C(C)=C(N)C3=O)N1C[C@@H]1N[C@@H]12 [MMC, mitomycin C]
chromatin binding of xFA proteins (xFANCA, xFANCF, xFANCD2) [1]: increased | replication (incorporation of radiolabeled nucleotides into nascent DNA) ([2]; 60 minutes after addition of sperm chromatin (FIG. 3A top right)): reduced | DNA replication ([2]; MMC 150 μM): significantly blocked | DNA replication ([2]; lower MMC concentrations (50 μM, 5 μM)): less inhibited

C[C@@]12C(=O)OC(=O)[C@]1(C)[C@H]1CC[C@@H]2O1 [NP-B11, cantharidin]
shift corresponding to xFANCM phosphorylation upon addition of DNA [3]: stimulates the post-translational modification of xFANCM or inhibits the dephosphorylation of xFANCM; also recorded: strongly stimulated

C[C@@]1(CO)[C@H](O)CC[C@@]2(C)[C@H]1CC[C@H]1C[C@@H]3C[C@@]12CC[C@]3(O)CO [aphidicolin]
chromatin binding of xFA proteins (xFANCA, xFANCF, xFANCD2) [1]: increased chromatin association

Cn1c(=O)c2c(ncn2C)n(C)c1=O [caffeine]
activation of xFANCD2-L by circular plasmid DNA [4, 6]: not significantly affected | MMC-induced recruitment of xFA proteins to chromatin ([1]; MMC-treated replicating extracts plus caffeine): reversed | induction of Mre11-PPP in response to dsDNA fragments ([5]; dsDNA fragments generated by HaeIII-digest): inhibited | induction of xMre11-PPP by circular plasmid DNA [5, 6]: inhibited | rescue of MMC-blocked replication ([2]; MMC 150 μM plus caffeine): could not be rescued | rescue of MMC-reduced replication ([2]; MMC-treated extracts plus caffeine (FIG. 3A top right)): rescued | rescue of MMC-inhibited replication ([2]; lower MMC concentration (50 μM) plus caffeine): could be rescued

COc1cc([C@@H]2c3cc4c(cc3[C@@H](O[C@@H]3O[C@@H]5CO[C@@H](C)O[C@H]5[C@H](O)[C@H]3O)[C@H]3COC(=O)[C@H]23)OCO4)cc(OC)c1O [etoposide]
induction of xFANCD2-L in the presence of circular plasmid DNA [4]: significantly blocked

ICRF-193
induction of xFANCD2-L in the presence of circular plasmid DNA [4]: significantly blocked
